Drawing on patent US4777167A, “Pharmaceutically useful substituted thiacycloalkeno [3,2-b]pyridines, compositions and method of use” (Ortho Pharmaceutical Corporation, priority 1987, dated 1988), this text covers IC50 and inhibition for five molecules.

Each structure is given as a SMILES string.

The target of one assay is T1, calcium channels (Oryctolagus cuniculus, UniProt P15381).
T1 construct: from tissue; host or cells: heart of female New Zealand white rabbits, membrane fraction (42,000×g pellet)
T1 sequence (P15381 whole entry, other chains not shown): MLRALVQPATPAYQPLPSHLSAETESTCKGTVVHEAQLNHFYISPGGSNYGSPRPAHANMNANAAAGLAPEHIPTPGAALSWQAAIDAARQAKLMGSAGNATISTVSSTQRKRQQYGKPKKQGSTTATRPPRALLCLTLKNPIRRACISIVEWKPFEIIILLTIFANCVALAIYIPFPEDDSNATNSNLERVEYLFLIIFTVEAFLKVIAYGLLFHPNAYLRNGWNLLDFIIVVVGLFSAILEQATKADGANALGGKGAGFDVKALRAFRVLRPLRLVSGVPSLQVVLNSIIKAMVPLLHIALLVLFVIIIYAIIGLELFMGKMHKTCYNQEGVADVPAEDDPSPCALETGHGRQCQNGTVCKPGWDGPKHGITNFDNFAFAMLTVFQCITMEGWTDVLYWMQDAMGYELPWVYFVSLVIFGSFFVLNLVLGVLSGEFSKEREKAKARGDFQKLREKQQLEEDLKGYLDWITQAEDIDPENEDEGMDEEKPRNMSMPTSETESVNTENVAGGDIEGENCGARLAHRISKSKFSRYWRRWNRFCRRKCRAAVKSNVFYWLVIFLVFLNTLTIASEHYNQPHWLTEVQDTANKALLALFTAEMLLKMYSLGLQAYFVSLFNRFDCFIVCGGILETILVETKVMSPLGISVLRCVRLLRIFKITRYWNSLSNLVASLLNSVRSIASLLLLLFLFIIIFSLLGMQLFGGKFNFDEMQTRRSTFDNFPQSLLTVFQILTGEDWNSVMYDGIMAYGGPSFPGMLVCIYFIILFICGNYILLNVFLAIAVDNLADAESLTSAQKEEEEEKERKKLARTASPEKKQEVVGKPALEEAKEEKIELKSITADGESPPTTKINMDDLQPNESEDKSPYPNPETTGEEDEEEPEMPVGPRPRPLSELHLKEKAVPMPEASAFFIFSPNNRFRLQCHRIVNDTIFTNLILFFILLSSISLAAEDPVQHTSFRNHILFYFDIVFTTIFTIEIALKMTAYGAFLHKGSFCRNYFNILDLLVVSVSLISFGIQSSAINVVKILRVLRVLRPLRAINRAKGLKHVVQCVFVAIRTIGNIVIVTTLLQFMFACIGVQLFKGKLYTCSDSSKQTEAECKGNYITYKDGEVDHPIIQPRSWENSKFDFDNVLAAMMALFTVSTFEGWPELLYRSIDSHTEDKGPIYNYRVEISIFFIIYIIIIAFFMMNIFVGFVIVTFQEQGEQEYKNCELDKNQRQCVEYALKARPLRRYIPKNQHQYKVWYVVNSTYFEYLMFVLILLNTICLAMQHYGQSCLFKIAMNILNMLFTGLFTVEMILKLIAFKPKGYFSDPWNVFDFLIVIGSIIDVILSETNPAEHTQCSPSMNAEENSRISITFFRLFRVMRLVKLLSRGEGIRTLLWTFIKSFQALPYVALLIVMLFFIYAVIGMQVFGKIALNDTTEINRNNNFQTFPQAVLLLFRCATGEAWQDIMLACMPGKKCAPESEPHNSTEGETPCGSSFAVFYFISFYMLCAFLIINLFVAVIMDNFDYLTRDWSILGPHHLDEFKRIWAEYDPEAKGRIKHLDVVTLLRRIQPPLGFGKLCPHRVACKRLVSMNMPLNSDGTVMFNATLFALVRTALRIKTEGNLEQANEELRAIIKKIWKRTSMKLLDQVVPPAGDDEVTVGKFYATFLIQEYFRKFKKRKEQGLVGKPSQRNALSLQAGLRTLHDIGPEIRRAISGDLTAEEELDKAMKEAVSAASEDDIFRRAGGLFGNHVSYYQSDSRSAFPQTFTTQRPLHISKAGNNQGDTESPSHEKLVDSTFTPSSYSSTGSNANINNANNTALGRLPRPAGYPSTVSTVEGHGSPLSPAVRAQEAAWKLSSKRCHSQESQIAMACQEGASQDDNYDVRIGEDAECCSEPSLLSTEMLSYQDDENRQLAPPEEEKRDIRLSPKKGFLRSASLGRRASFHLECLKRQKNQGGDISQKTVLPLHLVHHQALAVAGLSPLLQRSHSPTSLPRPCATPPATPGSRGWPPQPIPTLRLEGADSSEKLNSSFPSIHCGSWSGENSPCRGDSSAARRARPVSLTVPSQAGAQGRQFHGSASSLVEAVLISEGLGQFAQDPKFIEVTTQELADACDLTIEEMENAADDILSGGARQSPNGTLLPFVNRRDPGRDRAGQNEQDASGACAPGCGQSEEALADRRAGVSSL
T1 sequence (P13806 27-960 partner limits assumed, other chains not shown): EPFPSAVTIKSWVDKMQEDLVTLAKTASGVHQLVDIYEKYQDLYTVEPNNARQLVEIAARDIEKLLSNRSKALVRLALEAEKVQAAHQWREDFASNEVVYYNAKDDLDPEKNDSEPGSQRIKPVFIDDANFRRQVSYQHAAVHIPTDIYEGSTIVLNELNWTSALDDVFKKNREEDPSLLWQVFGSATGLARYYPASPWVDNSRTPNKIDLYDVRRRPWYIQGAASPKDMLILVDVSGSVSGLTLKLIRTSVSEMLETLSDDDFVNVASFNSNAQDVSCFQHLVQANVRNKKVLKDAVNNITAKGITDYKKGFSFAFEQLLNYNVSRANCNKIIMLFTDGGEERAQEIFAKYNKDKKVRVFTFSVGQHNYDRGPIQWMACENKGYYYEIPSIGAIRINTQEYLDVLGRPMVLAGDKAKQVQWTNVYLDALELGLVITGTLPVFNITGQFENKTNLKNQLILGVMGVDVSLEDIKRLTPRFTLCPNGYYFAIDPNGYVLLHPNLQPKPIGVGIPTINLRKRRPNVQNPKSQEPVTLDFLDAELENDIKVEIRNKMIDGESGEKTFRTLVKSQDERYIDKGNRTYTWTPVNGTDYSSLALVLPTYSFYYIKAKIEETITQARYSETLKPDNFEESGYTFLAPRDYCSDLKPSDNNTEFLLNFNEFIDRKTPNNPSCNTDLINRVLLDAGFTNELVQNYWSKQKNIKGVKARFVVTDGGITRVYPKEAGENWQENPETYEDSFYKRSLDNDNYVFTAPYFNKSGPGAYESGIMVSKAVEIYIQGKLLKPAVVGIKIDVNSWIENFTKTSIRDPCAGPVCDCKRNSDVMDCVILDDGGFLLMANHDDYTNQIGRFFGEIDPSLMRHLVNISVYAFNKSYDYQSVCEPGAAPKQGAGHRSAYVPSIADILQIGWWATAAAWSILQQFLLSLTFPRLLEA
T1 sequence (P13806 961-1106 partner limits assumed, other chains not shown): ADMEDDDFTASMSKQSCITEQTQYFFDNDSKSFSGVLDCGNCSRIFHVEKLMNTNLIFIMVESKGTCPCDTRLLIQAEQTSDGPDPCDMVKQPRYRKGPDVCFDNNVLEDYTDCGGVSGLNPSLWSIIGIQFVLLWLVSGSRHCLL
Put plainly: Inhibition of nitrendipine binding (3H-nitrendipine displacement, rabbit heart membranes). Also noted: species or system rabbit (New Zealand white). As to conditions: Table II, 90 min, 4° C. The method, then: (1) Inhibition of nitrendipine binding to calcium channels.
The assay for inhibition of nitrendipine binding follows the following procedure:
Female, New Zealand white rabbits (1-2 kg) are sacrificed by cervical dislocation, and the heart is immediately removed, cleaned, and chopped into small pieces. The tissue is homogenized in 5× volume of 0.05M Hepes buffer, pH 7.4. The homogenate is centrifuged at 4000×g for 10 minutes; the supernatant is recentrifuged at 42,000×g for 90 minutes. The resulting membrane pellet is resuspended (0.7 ml/g weight) in 0.05M Hepes, pH 7.4 and stored at -70° C. until used. Each tube of the binding assay contains ^3 H- nitrendipine (0.05-0.50 nM), buffer, membranes (0.10 ml), and test compound in a total volume of 1.0 ml. After 90 minutes at 4° C., the bound nitrendipine is separated from the unbound by filtration on Whatman GF/C fibers. After rinsing, the filters are dried and counted in a liquid scintillation counter.
Non-specific binding of ^3 H-nitrendipine (that amount bound in the presence of excess unlabelled nitrendipine) is subtracted from the total bound to obtain specifically bound radiolabeled nitrendipine. The amount of specifically bound nitrendipine in the presence of a test compound is compared to that amount bound in the absence of a compound. A percent displacement (or inhibition) can then be obtained.

The test system of the next assay is trachealis muscle. The assay can be described thus: Inhibition of calcium dependent smooth muscle contraction (KCl-challenged trachea). In kind it is cell-based, dog. As to conditions: Canis lupus familiaris, Table II, read-out: Inhibition Trachea Muscle Contraction % Inhibition; for inhibition at 0.1 µM: concentration 0.1 μM. How it is done: The test for inhibition of calcium dependent smooth muscle contraction is determined according to the following procedure:
Trachea from dogs sacrificed by excess KCl injection are stored overnight at 4° C. in oxygenated Krebs-Henseleit buffer. Tracheal rings, one cartilage segment wide (5-10 mm), are cut starting from the bronchial end. After cutting the cartilage, the trachealis muscle tissue is suspended in oxygenated Krebs-Henseleit buffer at 37° C. in a 25 ml tissue bath. After a 60 minutes equilibration period, the tissues are challenged with 10 μM carbachol. After 5 minutes the tissues are rinsed and allowed to rest 50 minutes. The tissues are then challenged with 50 mM KCl and, after 30 minutes, the contractions are quantitated. The tissues are then rinsed and reequilibrated for 50 minutes. Test compounds are then added for 10 minutes, and the tissue is rechallenged with 50 mMKcl. After 30 minutes, the contraction is recorded and used to determine the % inhibition of control.
The percent inhibition of smooth muscle contraction is calculated from response data before and after drug treatment. [formula] A rating is assigned to the compound depending upon the percent inhibition obtained.

The next assay concerns Aorta Muscle. Put plainly: Inhibition of aorta muscle contraction. In kind it is cell-based. As to conditions: Table II; concentration 0.1 μM.

For `CC1=C(C(=O)OCCN(C)Cc2ccccc2)C(c2c(Cl)cccc2Cl)C2=C(CCCCS2(=O)=O)N1` (stereo not drawn) [4 2,6-Cl2C6 H3], the IC50 on calcium channels is 86 nM. Further, the figures for the inhibition at 0.1 µM with trachealis muscle and in the assay with Aorta Muscle were 55% and 50%, respectively.

Regarding `CC1=C(C(=O)OCCN(C)c2ccccc2)C(c2ccccc2C(F)(F)F)C2=C(CCCCS2(=O)=O)N1` (stereo not drawn) [4 2-CF3C6 H4 CH2 CH2 NCH3 C6 H5], at calcium channels, the IC50 was determined as 46 nM. Also, the inhibition at 0.1 µM with trachealis muscle was 59%; with Aorta Muscle, 57%.

Take `CC1=C(C(=O)OCCN(C)Cc2ccccc2)C(c2ccccc2Cl)C2=C(CCCCS2(=O)=O)N1` (stereo not drawn) [4 2-ClC6 H4, N-Benzyl-N-methylaminoethyl 9-(2-chlorophenyl)-2,4,5,6,9-hexahydro-7-methyl-1,1-dioxothiacyclohepteno[3,2-b]pyridine-8-carboxylate]: on calcium channels, the IC50 stood at 220 nM. In addition, the inhibition at 0.1 µM in the assay with trachealis muscle turned out to be 57%; with Aorta Muscle, 54%.

Take `CC1=C(C(=O)OCCN(C)Cc2ccccc2)C(c2cccc(Cl)c2Cl)C2=C(CCCCS2(=O)=O)N1` (stereo not drawn) [4 2,3-Cl2C6 H3, N-Benzyl-N-methylaminoethyl 9-(2,3-dichlorophenyl)-2,4,5,6,9-hexahydro-7-methyl-1,1-dioxothiacyclohepteno[3,2-b]pyridine-8-carboxylate]: the IC50 on calcium channels is 100 nM. The inhibition at 0.1 µM in the assay with trachealis muscle is 62%; with Aorta Muscle, 83%.

As for `CC1=C(C(=O)OCCN(C)Cc2ccccc2)C(c2cccc(C(F)(F)F)c2)C2=C(CCCCS2(=O)=O)N1` (stereo not drawn) [4 3-CF3C6 H4], the half-maximal inhibitory concentration (IC50) at calcium channels amounted to 2800 nM. The inhibition at 0.2 µM with trachealis muscle (concentration 0.2 μM) was found to be 37%. This molecule also returned an inhibition at 0.1 µM with Aorta Muscle of 44%.
